Structures can show the parent of a compound that is named as a salt. Where two headings read alike, the source gives them in different places.
How the values were obtained:
Type in all cases: in vivo
[1] = tested on: Hedyotis verticillata; assay: Field trial, herbicidal activity against Hedyotis verticillata in oil palm plantation; details: Scleromitrion verticillatum; for inhibition at 25 g/ha: read-out: Herbicidal activity (%), w. after appl., No. 11, dose 25 g of AS/ha; for inhibition at 50 g/ha: read-out: Herbicidal activity (%), w. after appl., No. 12, dose 50 g of AS/ha; for inhibition at 80 g/ha: read-out: Herbicidal activity (%), w. after appl., No. 13, dose 80 g of AS/ha
Method: (§1) In an oil palm plantation, the economically important tropical weed Hedyotis verticillata was grown on plots of the dimensions 2×5 m under natural outdoor conditions and treated with the herbicides A1.2, B1 and C1 or their mixtures in a tank mix under standard conditions using a plot sprayer, at a water application rate of 450 liters of water per hectare (over-the-top application to the weeds; plant density initially more than 95% ground coverage). At intervals of 1, 2, 3, 4, 5, 6, 7 and 8 weeks after the application, the herbicidal efficacy of the active compounds or active compound mixtures was evaluated visually on the basis of the treated plots, in comparison with untreated control plots. The damage to and development of all above-ground parts of the plants were recorded. Evaluation was carried out using a percentage scale (100% effect=all plants killed; 50% effect=50% of the plants and the green parts of the plants killed; 0% effect=no noticeable effect=like control plot). The evaluation values of in each case 4 plots were averaged.

[2] = tested on: Asystasia intrusa; assay: Field trial, herbicidal activity against Asystasia intrusa in rubber tree plantation; details: Asystasia intrusa, read-out: Activity (%), w. after appl., No. 2, dose 60 g of AS/ha
Method: as §1
In a rubber tree plantation, plots with the tropical weed Asystasia intrusa were grown under natural outdoor conditions (dimensions of the plots 2 x 5 m). The herbicides or their mixtures in a tank mix were applied under standard conditions (over-the-top application using a plot sprayer, water application rate 450 l/ha). In intervals of 4, 7, 13, 17 and 21 weeks after the application, the herbicidal efficacy of the active compounds or their mixtures was evaluated visually on the basis of the treated plots, in comparison with untreated control plots. The damage to and the development of all above-ground parts of the plants were recorded. Evaluation was carried out as described in Example 1.

[3] = tested on: Brachiaria mutica, Digitaria horizontalis, Panicum maximum, Echinochloa colona and Ageratum conyzoides; assay: Field trial, herbicidal activity against weeds in sugar cane plantation
Method: as §1, with “Evaluation was carried out using a percentage scale (100% effect=all plants killed; 50% effect=50% of the plants and the green parts of the plants killed; 0% effect=no noticeable effect=like control plot). The evaluation values of in each case 4 plots were averaged.” left out
In a sugar cane plantation, plots with the weeds Brachiaria mutica, Digitaria horizontalis, Panicum maximum, Echinochloa colona and Ageratum conyzoides were grown under natural outdoor conditions (dimensions of the plots 2×5 m). […] Four weeks after the application, the herbicidal efficacy of the active compounds or their mixtures was evaluated visually on the basis of the treated plots, in comparison with untreated control plots. The damage to and development of all above-ground parts of the plants were recorded. […]

[4] = tested on: Axonopus compressus; assay: Field trial, herbicidal activity against Axonopus compressus in rubber tree plantation; details: Axonopus compressus, read-out: Activity (%), w. after appl., No. 2, dose 60 g of AS/ha
Method: as §1
In a rubber tree plantation, plots with the tropical weed Axonopus compressus were grown under natural outdoor conditions (plot dimensions 2×5 m). The herbicides or their mixtures in a tank mix were applied under standard conditions using a plot spayer at a water application rate of 450 liters of water per hectare (over-the-top application). At intervals of 4, 7, 13, 17 and 21 weeks after the application, the herbicidal efficacy of the active compounds or active compound mixtures was evaluated visually on the basis of the treated plots, in comparison with untreated control plots. The damage to and development of all above-ground parts of the plants were recorded. Evaluation was carried out as described in Example 1.

CP(=O)(O)CCC(N)C(=O)O (stereo not drawn) [A1.2, Glufosinate-monoammonium salt]
inhibition at 25 g/ha ([1]; 1 w. after appl.): 35% | inhibition at 25 g/ha ([1]; 2 w. after appl.): 28% | inhibition at 25 g/ha ([1]; 3 w. after appl.): 23% | inhibition at 25 g/ha ([1]; 4 w. after appl.): 20% | inhibition at 25 g/ha ([1]; 5 w. after appl.): 10% | inhibition at 25 g/ha ([1]; 6 w. after appl.): 10% | inhibition at 25 g/ha ([1]; 7 w. after appl.): 10% | inhibition at 25 g/ha ([1]; 8 w. after appl.): 0% | inhibition at 50 g/ha ([1]; 1 w. after appl.): 35% | inhibition at 50 g/ha ([1]; 2 w. after appl.): 25% | inhibition at 50 g/ha ([1]; 3 w. after appl.): 20% | inhibition at 50 g/ha ([1]; 4 w. after appl.): 20% | inhibition at 50 g/ha ([1]; 5 w. after appl.): 10% | inhibition at 50 g/ha ([1]; 6 w. after appl.): 10% | inhibition at 50 g/ha ([1]; 7 w. after appl.): 10% | inhibition at 50 g/ha ([1]; 8 w. after appl.): 0% | inhibition at 80 g/ha ([1]; 1 w. after appl.): 58% | inhibition at 80 g/ha ([1]; 2 w. after appl.): 45% | inhibition at 80 g/ha ([1]; 3 w. after appl.): 40% | inhibition at 80 g/ha ([1]; 4 w. after appl.): 40% | inhibition at 80 g/ha ([1]; 5 w. after appl.): 40% | inhibition at 80 g/ha ([1]; 6 w. after appl.): 30% | inhibition at 80 g/ha ([1]; 7 w. after appl.): 28% | inhibition at 80 g/ha ([1]; 8 w. after appl.): 8% | inhibition at 60 g/ha ([2]; 4 w. after appl.): 23% | inhibition at 60 g/ha ([2]; 7 w. after appl.): 5% | inhibition at 60 g/ha ([2]; 13 w. after appl.): 0% | inhibition at 60 g/ha ([2]; 17 w. after appl.): 0% | inhibition at 60 g/ha ([2]; 21 w. after appl.): 0% | inhibition at 300 g/ha ([3]; 672 h, read-out: Herbicidal activity (%)): 72% | Weed coverage (%) ([3]; No. 2, dose 300 g of AS/ha, percent ground coverage, control plot has more than 95% weed coverage): 27% | inhibition at 60 g/ha ([4]; 4 w. after appl.): 17% | inhibition at 60 g/ha ([4]; 7 w. after appl.): 10% | inhibition at 60 g/ha ([4]; 13 w. after appl.): 0% | inhibition at 60 g/ha ([4]; 17 w. after appl.): 0% | inhibition at 60 g/ha ([4]; 21 w. after appl.): 0%

Reference: patent US6436874B1, “Synergistic herbicidal agents based on leaf herbicides containing phosphorus, imidazolinones and hormone weed killers” (priority 1998, dated 2002)
